From the NIST ThermoML archive (doi:10.1021/je900164a)

Test: xn = mol fraction of the nth substance listed
Details: 101 kPa, Liquid, Vibrating tube method

CCCC[N+](CCCC)(CCCC)CCCC.[Br-] [tetrabutylammonium bromide] + O
Details | mass density [kg/m3]
276.15 K, x1 = 0.0009 | 1001.35
276.15 K, x1 = 0.0018 | 1002.75
276.15 K, x1 = 0.00359 | 1005.6
276.15 K, x1 = 0.00715 | 1011.37
276.15 K, x1 = 0.01069 | 1017.09
276.15 K, x1 = 0.01421 | 1022.49
276.15 K, x1 = 0.0177 | 1027.72
276.15 K, x1 = 0.02202 | 1033.53
276.15 K, x1 = 0.02631 | 1038.46
276.15 K, x1 = 0.03056 | 1042.53
277.15 K, x1 = 0.0009 | 1001.35
277.15 K, x1 = 0.0018 | 1002.73
277.15 K, x1 = 0.00359 | 1005.52
277.15 K, x1 = 0.00715 | 1011.23
277.15 K, x1 = 0.01069 | 1016.88
277.15 K, x1 = 0.01421 | 1022.16
277.15 K, x1 = 0.0177 | 1027.3
277.15 K, x1 = 0.02202 | 1033.01
277.15 K, x1 = 0.02631 | 1037.94
277.15 K, x1 = 0.03056 | 1040.98
277.15 K, x1 = 0.03478 | 1045.39
277.15 K, x1 = 0.0431 | 1050.63
277.15 K, x1 = 0.05128 | 1054.86
277.15 K, x1 = 0.07499 | 1060.81
278.15 K, x1 = 0.0009 | 1001.32
278.15 K, x1 = 0.0018 | 1002.69
278.15 K, x1 = 0.00359 | 1005.47
278.15 K, x1 = 0.00715 | 1011.09
278.15 K, x1 = 0.01069 | 1016.66
278.15 K, x1 = 0.01421 | 1021.91
278.15 K, x1 = 0.0177 | 1026.96
278.15 K, x1 = 0.02202 | 1032.57
278.15 K, x1 = 0.02631 | 1037.41
278.15 K, x1 = 0.03056 | 1040.41
278.15 K, x1 = 0.03478 | 1044.76
278.15 K, x1 = 0.0431 | 1049.93
278.15 K, x1 = 0.05128 | 1054.13
278.15 K, x1 = 0.07499 | 1060.07
279.18 K, x1 = 0.0009 | 1001.28
279.18 K, x1 = 0.0018 | 1002.65
279.18 K, x1 = 0.00359 | 1005.39
279.18 K, x1 = 0.00715 | 1010.96
279.18 K, x1 = 0.01069 | 1016.45
279.18 K, x1 = 0.01421 | 1021.63
279.18 K, x1 = 0.0177 | 1026.61
279.18 K, x1 = 0.02202 | 1032.11
279.18 K, x1 = 0.02631 | 1036.89
279.18 K, x1 = 0.03056 | 1039.82
279.18 K, x1 = 0.03478 | 1044.11
279.18 K, x1 = 0.0431 | 1049.24
279.18 K, x1 = 0.05128 | 1053.4
279.18 K, x1 = 0.07499 | 1059.33
280.15 K, x1 = 0.0009 | 1001.23
280.15 K, x1 = 0.0018 | 1002.58
280.15 K, x1 = 0.00359 | 1005.29
280.15 K, x1 = 0.00715 | 1010.78
280.15 K, x1 = 0.01069 | 1016.22
280.15 K, x1 = 0.01421 | 1021.32
280.15 K, x1 = 0.0177 | 1026.22
280.15 K, x1 = 0.02202 | 1031.62
280.15 K, x1 = 0.02631 | 1036.32
280.15 K, x1 = 0.03056 | 1039.11
280.15 K, x1 = 0.03478 | 1043.44
280.15 K, x1 = 0.0431 | 1048.51
280.15 K, x1 = 0.05128 | 1052.65
280.15 K, x1 = 0.07499 | 1058.55
281.15 K, x1 = 0.0009 | 1001.16
281.15 K, x1 = 0.0018 | 1002.49
281.15 K, x1 = 0.00359 | 1005.18
281.15 K, x1 = 0.00715 | 1010.61
281.15 K, x1 = 0.01069 | 1015.98
281.15 K, x1 = 0.01421 | 1020.99
281.15 K, x1 = 0.0177 | 1025.83
281.15 K, x1 = 0.02202 | 1031.18
281.15 K, x1 = 0.02631 | 1035.8
281.15 K, x1 = 0.03056 | 1038.63
281.15 K, x1 = 0.03478 | 1042.82
281.15 K, x1 = 0.0431 | 1048.23
281.15 K, x1 = 0.05128 | 1051.94
281.15 K, x1 = 0.07499 | 1057.83
282.15 K, x1 = 0.0009 | 1001.09
282.15 K, x1 = 0.0018 | 1002.4
282.15 K, x1 = 0.00359 | 1005.07
282.15 K, x1 = 0.00715 | 1010.44
282.15 K, x1 = 0.01069 | 1015.72
282.15 K, x1 = 0.01421 | 1020.68
282.15 K, x1 = 0.0177 | 1025.44
282.15 K, x1 = 0.02202 | 1030.69
282.15 K, x1 = 0.02631 | 1035.23
282.15 K, x1 = 0.03056 | 1038.05
282.15 K, x1 = 0.03478 | 1042.16
282.15 K, x1 = 0.0431 | 1047.12
282.15 K, x1 = 0.05128 | 1051.21
282.15 K, x1 = 0.07499 | 1057.05
283.15 K, x1 = 0.0009 | 1001
283.15 K, x1 = 0.0018 | 1002.3
283.15 K, x1 = 0.00359 | 1004.95
283.15 K, x1 = 0.00715 | 1010.26
283.15 K, x1 = 0.01069 | 1015.5
283.15 K, x1 = 0.01421 | 1020.38
283.15 K, x1 = 0.0177 | 1025.06
283.15 K, x1 = 0.02202 | 1030.21
283.15 K, x1 = 0.02631 | 1034.68
283.15 K, x1 = 0.03056 | 1037.44
283.15 K, x1 = 0.03478 | 1041.49
283.15 K, x1 = 0.0431 | 1046.41
283.15 K, x1 = 0.05128 | 1050.46
283.15 K, x1 = 0.07499 | 1056.3
288.15 K, x1 = 0.0009 | 1000.35
288.15 K, x1 = 0.0018 | 1001.6
288.15 K, x1 = 0.00359 | 1004.1
288.15 K, x1 = 0.00715 | 1009.15
288.15 K, x1 = 0.01069 | 1014.04
288.15 K, x1 = 0.01421 | 1018.72
288.15 K, x1 = 0.0177 | 1023.06
288.15 K, x1 = 0.02202 | 1027.79
288.15 K, x1 = 0.02631 | 1031.87
288.15 K, x1 = 0.03056 | 1035.33
288.15 K, x1 = 0.03478 | 1038.35
288.15 K, x1 = 0.0431 | 1042.93
288.15 K, x1 = 0.05128 | 1046.34
293.15 K, x1 = 0.0009 | 999.405
293.15 K, x1 = 0.0018 | 1000.6
293.15 K, x1 = 0.00359 | 1002.98
293.15 K, x1 = 0.00715 | 1007.76
293.15 K, x1 = 0.01069 | 1012.37
293.15 K, x1 = 0.01421 | 1016.75
293.15 K, x1 = 0.0177 | 1020.77
293.15 K, x1 = 0.02202 | 1025.18
293.15 K, x1 = 0.02631 | 1028.99
293.15 K, x1 = 0.03056 | 1032.22
293.15 K, x1 = 0.03478 | 1035.02
293.15 K, x1 = 0.0431 | 1039.41
293.15 K, x1 = 0.05128 | 1042.74
298.15 K, x1 = 0.0009 | 998.18
298.15 K, x1 = 0.0018 | 999.32
298.15 K, x1 = 0.00359 | 1001.59
298.15 K, x1 = 0.00715 | 1006.13
298.15 K, x1 = 0.01069 | 1010.49
298.15 K, x1 = 0.01421 | 1014.53
298.15 K, x1 = 0.0177 | 1018.3
298.15 K, x1 = 0.02202 | 1022.43
298.15 K, x1 = 0.02631 | 1026
298.15 K, x1 = 0.03056 | 1029.06
298.15 K, x1 = 0.03478 | 1031.68
298.15 K, x1 = 0.0431 | 1035.89
298.15 K, x1 = 0.05128 | 1039.06
303.15 K, x1 = 0.0009 | 996.74
303.15 K, x1 = 0.0018 | 997.82
303.15 K, x1 = 0.00359 | 999.99
303.15 K, x1 = 0.00715 | 1004.3
303.15 K, x1 = 0.01069 | 1008.43
303.15 K, x1 = 0.01421 | 1012.26
303.15 K, x1 = 0.0177 | 1015.77
303.15 K, x1 = 0.02202 | 1019.65
303.15 K, x1 = 0.02631 | 1022.97
303.15 K, x1 = 0.03056 | 1025.85
303.15 K, x1 = 0.03478 | 1028.34
303.15 K, x1 = 0.0431 | 1032.36
303.15 K, x1 = 0.05128 | 1035.44
308.15 K, x1 = 0.0009 | 995.085
308.15 K, x1 = 0.0018 | 996.14
308.15 K, x1 = 0.00359 | 998.22
308.15 K, x1 = 0.00715 | 1002.32
308.15 K, x1 = 0.01069 | 1006.21
308.15 K, x1 = 0.01421 | 1009.84
308.15 K, x1 = 0.0177 | 1013.13
308.15 K, x1 = 0.02202 | 1016.74
308.15 K, x1 = 0.02631 | 1019.88
308.15 K, x1 = 0.03056 | 1022.54
308.15 K, x1 = 0.03478 | 1024.97
308.15 K, x1 = 0.0431 | 1028.78
308.15 K, x1 = 0.05128 | 1031.82
